# Data: US4687775A, “2-[(Imidazo[1,2-a]pyridinylmethyl)sulfinyl]-1H-benzimidazoles” (G. D. Searle & Co., priority 1986, dated 1987)
# Experiments:
# (H^+ +K^+)-ATPase = target: T1, (H^+ +K^+)-ATPase (Canis lupus familiaris, UniProt P50996); assay: Inhibition of (H^+ +K^+)-ATPase from Canine Gastric Mucosa; format: biochemical, canine (mongrel dogs); conditions: canine gastric mucosa microsomes; pH 6.0; 30 min preincubation with compound at 37°; K^+-stimulated minus basal activity
# T1 construct: (H^+ +K^+)-ATPase obtained from canine gastric mucosa; from tissue; host or cells: glandular gastric mucosa of mongrel dogs (antral and cardiac regions removed), microsomes from the 15%-30% sucrose interface, lyophilized
# Protocol: Inhibition of (H^+ +K^+)-ATPase from Canine Gastric Mucosa
# Mongrel dogs weighing 15 to 25 kilograms were fasted for twenty-four hours, with water provided ad libitum. The animals were anesthetized with pentobarbital and the stomachs were removed. Subsequent tissue manipulations and subcellular fractionations were performed at 0° to 4° C. After the stomachs were cut open and rinsed with tap water, the antral and cardiac regions were removed and the remaining tissue was rinsed three times in saline. The glandular mucosa was removed mechanically, chopped finely in a medium containing 10 mM Tris hydrochloride (pH 7.4) and 250 mM sucrose, and homogenized. The homogenate was centrifuged at 20,000×g for twenty minutes and the pellet discarded. The supernatant was then centrifuged at 150,000×g for ninety minutes and the supernatant discarded. The pellet was resuspended in the Tris-HCl/sucrose medium by homogenization. Part (2 ml) of the resultant microsomal suspension was layered onto a step gradient consisting of 9 ml of 15% sucrose above 12 ml of 30% sucrose, each sucrose solution being buffered with 10 mM Tris hydrochloride (pH 7.4) containing 0.01% sodium azide. The microsomes retained at the 15%-30% sucrose interface, after centrifugation at 250,000×g for sixty minutes, were used as the source of (H^+ +K^+)-ATPase. Microsomal preparations were lyophilized, a process that assured potassium ion permiability, and stored at -10° until used.
# (H^+ K^+)-ATPase activity for each test compound was determined, in duplicate, by measuring the release of inorganic phosphate, which was assayed according to the method of J. ChandraRajan and L. Klein. Anal. Biochem., 72, 407-412 (1976). The (H^+ +K^+)-ATPase assay medium consisted of 20 mM Mes-Tris (pH 6.0), 5 mM magnesium chloride, 25 mM sucrose, and 4 mM Tris-ATP with or without 20 mM potassium chloride in a total volume of 2 ml. Microsomal suspensions (20 to 60 mcl, containing about 25 mcg protein) were added to the assay medium, without Tris-ATP, and then preincubated with a test compound for thirty minutes at 37°. The assay was initiated by adding Tris-ATP and the mixture was incubated another thirty minutes at 37°. A 200-mcl aliquot of the assay mixture was then added to 1.4 ml of a solution consisting of 0.1M sodium acetate (pH 4.0) and 10 % sodium dodecylsulfate, followed by the addition of 200 mcl each of 1% ammonium molybdate and 1% ascorbic acid. At least fifteen minutes later, the optical absorbance at 870 nm (which was proportional to inorganic phosphate concentration up to 100 nmoles per tube, as determined by a standard curve) was obtained. Enzyme activity was linear with incubation time.
# (H^+ +K^+)-ATPase activity is represented by the difference between the measured activities in the presence of potassium ion (K^+ -stimulated) and in the absence of potassium ion (basal). […] If the IC50 for a test compound could not be determined for the concentration range tested, percent inhibition of (H^+ +K^+)-ATPase was obtained for the compound at 0.1 mM.
# [1] = system: gastric acid secretion in gastric fistula beagle dogs; assay: Inhibition of Gastric Acid Secretion in Gastric Fistula Beagle Dogs; format: in vivo; conditions: 3 mg/kg dose; i.d. (intraduodenal); histamine-stimulated secretion, four-hour period
# T1 sequence (P50996 2-1034 limits assumed): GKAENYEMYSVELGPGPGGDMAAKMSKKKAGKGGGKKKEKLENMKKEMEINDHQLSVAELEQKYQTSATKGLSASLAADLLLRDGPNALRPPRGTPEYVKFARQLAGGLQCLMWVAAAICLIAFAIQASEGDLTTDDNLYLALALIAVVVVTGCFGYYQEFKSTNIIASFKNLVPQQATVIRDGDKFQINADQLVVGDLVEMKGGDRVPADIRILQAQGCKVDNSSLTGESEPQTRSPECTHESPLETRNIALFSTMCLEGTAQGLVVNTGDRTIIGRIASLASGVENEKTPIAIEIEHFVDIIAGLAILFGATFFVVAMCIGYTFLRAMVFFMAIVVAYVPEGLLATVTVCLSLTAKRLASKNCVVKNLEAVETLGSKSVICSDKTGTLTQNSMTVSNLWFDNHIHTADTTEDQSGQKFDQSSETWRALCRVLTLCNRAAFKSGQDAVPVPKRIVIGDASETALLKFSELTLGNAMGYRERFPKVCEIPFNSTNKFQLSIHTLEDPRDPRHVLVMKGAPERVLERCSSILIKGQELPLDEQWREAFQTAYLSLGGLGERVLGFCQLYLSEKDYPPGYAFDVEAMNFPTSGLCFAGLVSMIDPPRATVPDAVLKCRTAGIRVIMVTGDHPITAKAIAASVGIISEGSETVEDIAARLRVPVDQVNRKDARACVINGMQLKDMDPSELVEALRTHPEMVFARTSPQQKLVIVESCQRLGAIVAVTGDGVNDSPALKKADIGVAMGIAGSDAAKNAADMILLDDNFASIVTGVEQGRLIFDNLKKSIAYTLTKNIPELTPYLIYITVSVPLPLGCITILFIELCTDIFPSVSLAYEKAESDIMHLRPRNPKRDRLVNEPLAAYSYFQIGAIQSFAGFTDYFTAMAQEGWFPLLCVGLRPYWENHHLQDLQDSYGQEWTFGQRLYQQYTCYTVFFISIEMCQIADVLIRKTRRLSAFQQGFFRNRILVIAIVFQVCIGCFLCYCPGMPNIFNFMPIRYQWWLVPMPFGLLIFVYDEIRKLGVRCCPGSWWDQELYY
# T1 sequence (P33704 whole entry partner): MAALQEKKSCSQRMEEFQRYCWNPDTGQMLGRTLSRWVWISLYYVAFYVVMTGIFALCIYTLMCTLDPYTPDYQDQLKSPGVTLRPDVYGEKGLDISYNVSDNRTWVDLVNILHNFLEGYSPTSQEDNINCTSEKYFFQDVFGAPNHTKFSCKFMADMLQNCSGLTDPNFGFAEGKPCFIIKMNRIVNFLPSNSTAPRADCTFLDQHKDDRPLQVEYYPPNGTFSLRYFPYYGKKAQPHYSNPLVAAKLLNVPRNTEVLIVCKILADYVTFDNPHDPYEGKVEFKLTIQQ
IC50 ((H^+ +K^+)-ATPase) [µM],Structure (SMILES),Gastric-Fistula Beagle % Inhibition [1] [%]
6.2,"Cc1nc2c(C[S+]([O-])c3nc4ccccc4[nH]3)cccn2c1C (centres unmarked) [Example 23, 2-[[(2,3-dimethylimidazo[1,2-a]pyridin-8-yl)methyl]sulfinyl]-1H-benzimidazole]",–
4.8,"Cc1cc2nc([S+]([O-])Cc3cccn4ccnc34)[nH]c2cc1C (centres unmarked) [Example 15, 2-[(imidazo[1,2-a]pyridin-8-ylmethyl)sulfinyl]-5,6-dimethyl-1H-benzimidazole hydrate]",–
17.5,"O=[N+]([O-])c1ccc(-c2cnc3c(C[S+]([O-])c4nc5ccccc5[nH]4)cccn23)cc1 (centres unmarked) [Example 33, 2-[[[3-(4-nitrophenyl)imidazo[1,2-a]pyridin-8-yl]methyl]sulfinyl]-1H-benzimidazole 1/4 hydrate]",–
7.8,"COC(=O)c1ccc(-c2cnc3c(C[S+]([O-])c4nc5ccccc5[nH]4)cccn23)cc1 (centres unmarked) [Example 49, methyl 4-[8-[(1H-benzimidazol-2-ylsulfinyl)methyl]imidazo[1,2-a]pyridin-3-yl]benzoate hydrate]",–
5,"[O-][S+](Cc1cccn2ccnc12)c1nc2cc(Cl)ccc2[nH]1 (centres unmarked) [Example 19, 5-chloro-2-[(imidazo[1,2-a]pyridin-8-ylmethyl)sulfinyl]-1H-benzimidazole]",–
4,"Cc1cnc2c(C[S+]([O-])c3nc4ccccc4[nH]3)cccn12 (centres unmarked) [Example 25, 2-[[(3-methylimidazo[1,2-a]pyridin-8-yl)methyl]sulfinyl]-1H-benzimidazole hemihydrate1/2CH2 Cl2]",–
8.5,"COc1ccc2[nH]c([S+]([O-])Cc3cccn4ccnc34)nc2c1 (centres unmarked) [Example 7, 2-[(imidazo[1,2-a]pyridin-8-ylmethyl)sulfinyl]-5-methoxy-1H-benzimidazole]",–
6.9,"[O-][S+](Cc1cccn2c(-c3cccc(C(F)(F)F)c3)cnc12)c1nc2ccccc2[nH]1 (centres unmarked) [Example 36, 2-[[[3-[3-(trifluoromethyl)phenyl]imidazo[1,2-a]pyridin-8-yl]methyl]sulfinyl]-1H-benzimidazole]",–
6.2,"Cc1cccc2[nH]c([S+]([O-])Cc3cccn4ccnc34)nc12 (centres unmarked) [Example 11, 2-[(imidazo[1,2-a]pyridin-8-ylmethyl)sulfinyl]-4-methyl-1H-benzimidazole]",–
69,"COc1cc2nc([S+]([O-])Cc3cccn4ccnc34)[nH]c2cc1OC (centres unmarked) [Example 17, 2-[(imidazo[1,2-a]pyridin-8-ylmethyl)sulfinyl]-5,6-dimethoxy-1H-benzimidazole]",–
9.1,"[O-][S+](Cc1cccn2c(-c3ccccc3)cnc12)c1nc2ccccc2[nH]1 (centres unmarked) [Example 30, 2-[[(3-phenylimidazo[1,2-a]pyridin-8-yl)methyl]sulfinyl]-1H-benzimidazole hemihydrate]",–
> 100,"[O-][S+](Cc1cccn2cc(-c3ccccc3)nc12)c1nc2ccccc2[nH]1 (centres unmarked) [Example 28, 2-[[(2-phenylimidazo[1,2-a]pyridin-8-yl)methyl]sulfinyl]-1H-benzimidazole 1/4 hydrate]",–
5.5,"[O-][S+](Cc1cccn2c(-c3ccc(Cl)cc3)cnc12)c1nc2ccccc2[nH]1 (centres unmarked) [Example 52, 2-[[[3-(4-chlorophenyl)imidazo[1,2-a]pyridin-8-yl]methyl]sulfinyl]-1H-benzimidazole]",–
7.2,"Cc1ccc2[nH]c([S+]([O-])Cc3cccn4c(-c5cccc(C(F)(F)F)c5)cnc34)nc2c1 (centres unmarked) [Example 39, 5-methyl-2-[[[3-[3-(trifluoromethyl)phenyl]imidazo[1,2-a]pyridin-8-yl]methyl]sulfinyl]-1H-benzimidazole]",–
3.4,"[O-][S+](Cc1cccn2ccnc12)c1nc2cc(C(F)(F)F)ccc2[nH]1 (centres unmarked) [Example 21, 2-[(imidazo[1,2-a]pyridin-8-ylmethyl)sulfinyl]-5-(trifluoromethyl)-1H-benzimidazole]",–
> 100,"[O-][S+](Cc1cccc2nccn12)c1nc2ccccc2[nH]1 (centres unmarked) [Example 56, 2-[(imidazo[1,2-a]pyridin-5-ylmethyl)sulfinyl]-1H-benzimidazole]",–
13,"[O-][S+](Cc1cccn2c(-c3ccc(C(F)(F)F)cc3)cnc12)c1nc2cc(Cl)ccc2[nH]1 (centres unmarked) [Example 47, 5-chloro-2-[[[3-[4-(trifluoromethyl)phenyl]imidazo[1,2-a]pyridin-8-yl]methyl]sulfinyl]-1H-benzimidazole]",–
3.1,"Cc1ccc2[nH]c([S+]([O-])Cc3cccn4ccnc34)nc2c1 (centres unmarked) [Example 13, 2-[(imidazo[1,2-a]pyridin-8-ylmethyl)sulfinyl]-5-methyl-1H-benzimidazole]",–
9.2,"CCOc1ccc2[nH]c([S+]([O-])Cc3cccn4ccnc34)nc2c1 (centres unmarked) [Example 9, 5-ethoxy-2-[(imidazo[1,2-a]pyridin-8-ylmethyl)sulfinyl]-1H-benzimidazole]",–
15.2,"[O-][S+](Cc1cccn2c(-c3cccc(C(F)(F)F)c3)cnc12)c1nc2cc(Cl)ccc2[nH]1 (centres unmarked) [Example 42, 5-chloro-2-[[[3-[3-(trifluoromethyl)phenyl]imidazo[1,2-a]pyridin-8-yl]methyl]sulfinyl]-1H-benzimidazole]",–
6.7,Cc1cn2cccc(C[S+]([O-])c3nc4ccccc4[nH]3)c2n1 (centres unmarked) [Example 5],16
7.4,"[O-][S+](Cc1cccn2c(-c3ccc(C(F)(F)F)cc3)cnc12)c1nc2ccccc2[nH]1 (centres unmarked) [Example 45, 2-[[[3-[4-(trifluoromethyl)phenyl]imidazo[1,2-a]pyridin-8-yl]methyl]sulfinyl]-1H-benzimidazole]",–
2.7,"[O-][S+](Cc1cccn2ccnc12)c1nc2ccccc2[nH]1 (centres unmarked) [Example 3, 2-[(imidazo[1,2-a]pyridin-8-ylmethyl)sulfinyl]-1H-benzimidazole 1/8 hydrate]",57
3.2,"Cc1ccc(-c2cnc3c(C[S+]([O-])c4nc5ccccc5[nH]4)cccn23)cc1 (centres unmarked) [Example 54, 2-[[[3-(4-methylphenyl)imidazo[1,2-a]pyridin-8-yl]methyl]sulfinyl]-1H-benzimidazole]",–
